Data as given in patent publication US20250145606A1 (Arcus Biosciences, Inc., priority 2023, published 2025).
Where two headings read alike, the source gives them in different places.

What was measured:
[1] = molecular target: PDGFRβ (Homo sapiens (Human), UniProt P09619); assay: Inhibition of PDGFRβ kinase activity (HTRF KinEASE-TK); conditions: biochemical, HTRF KinEASE-TK
Summary of the method: (§1)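 Human kinases were preincubated 1 h at rt with a 22-point 1:2 compound titration, then run 120 min at rt with biotinylated TK peptide and ATP (2× mix: c-Kit 16 μM, PDGFRα 1 μM, PDGFRβ 40 μM, CSF1R 20 μM). Phosphopeptide was read by HTRF TR-FRET (665/620 nm), and IC50s came from 4-parameter fits.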

[2] = molecular target: PDGFRα (Homo sapiens (Human), UniProt P16234); assay: Inhibition of PDGFRα kinase activity (HTRF KinEASE-TK); conditions: biochemical, HTRF KinEASE-TK
Chain of PDGFRα (P16234 24-1089): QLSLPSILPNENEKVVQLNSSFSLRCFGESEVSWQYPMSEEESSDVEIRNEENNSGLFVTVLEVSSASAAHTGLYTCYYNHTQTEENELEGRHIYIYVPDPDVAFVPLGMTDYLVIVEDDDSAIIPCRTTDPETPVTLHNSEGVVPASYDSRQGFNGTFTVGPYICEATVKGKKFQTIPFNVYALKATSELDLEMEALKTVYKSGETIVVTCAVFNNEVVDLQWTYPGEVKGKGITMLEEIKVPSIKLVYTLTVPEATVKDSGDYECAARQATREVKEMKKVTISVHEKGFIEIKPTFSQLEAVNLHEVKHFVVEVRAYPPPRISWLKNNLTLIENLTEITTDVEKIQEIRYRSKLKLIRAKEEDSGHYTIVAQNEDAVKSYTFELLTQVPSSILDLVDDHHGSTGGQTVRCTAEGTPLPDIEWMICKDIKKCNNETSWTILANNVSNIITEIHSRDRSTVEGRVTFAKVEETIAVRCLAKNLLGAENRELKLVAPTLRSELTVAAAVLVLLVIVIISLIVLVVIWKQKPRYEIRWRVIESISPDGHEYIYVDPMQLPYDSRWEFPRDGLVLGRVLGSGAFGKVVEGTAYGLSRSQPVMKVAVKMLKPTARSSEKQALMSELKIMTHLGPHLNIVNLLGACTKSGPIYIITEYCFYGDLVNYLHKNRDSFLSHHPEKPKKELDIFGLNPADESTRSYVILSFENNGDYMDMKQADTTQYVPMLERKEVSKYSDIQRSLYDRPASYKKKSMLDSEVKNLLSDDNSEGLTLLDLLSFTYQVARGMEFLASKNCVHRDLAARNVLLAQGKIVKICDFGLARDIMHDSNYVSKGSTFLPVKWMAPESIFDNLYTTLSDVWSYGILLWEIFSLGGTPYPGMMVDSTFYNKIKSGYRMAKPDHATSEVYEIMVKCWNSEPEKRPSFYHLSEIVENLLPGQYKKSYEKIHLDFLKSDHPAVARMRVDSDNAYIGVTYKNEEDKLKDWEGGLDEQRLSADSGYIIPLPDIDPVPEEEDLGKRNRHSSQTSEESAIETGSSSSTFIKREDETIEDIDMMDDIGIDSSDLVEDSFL
Summary of the method: as §1

[3] = molecular target: CSF1R (Homo sapiens (Human), UniProt P07333); assay: Inhibition of CSF1R kinase activity (HTRF KinEASE-TK); conditions: biochemical, HTRF KinEASE-TK
Chain of CSF1R (P07333 20-972): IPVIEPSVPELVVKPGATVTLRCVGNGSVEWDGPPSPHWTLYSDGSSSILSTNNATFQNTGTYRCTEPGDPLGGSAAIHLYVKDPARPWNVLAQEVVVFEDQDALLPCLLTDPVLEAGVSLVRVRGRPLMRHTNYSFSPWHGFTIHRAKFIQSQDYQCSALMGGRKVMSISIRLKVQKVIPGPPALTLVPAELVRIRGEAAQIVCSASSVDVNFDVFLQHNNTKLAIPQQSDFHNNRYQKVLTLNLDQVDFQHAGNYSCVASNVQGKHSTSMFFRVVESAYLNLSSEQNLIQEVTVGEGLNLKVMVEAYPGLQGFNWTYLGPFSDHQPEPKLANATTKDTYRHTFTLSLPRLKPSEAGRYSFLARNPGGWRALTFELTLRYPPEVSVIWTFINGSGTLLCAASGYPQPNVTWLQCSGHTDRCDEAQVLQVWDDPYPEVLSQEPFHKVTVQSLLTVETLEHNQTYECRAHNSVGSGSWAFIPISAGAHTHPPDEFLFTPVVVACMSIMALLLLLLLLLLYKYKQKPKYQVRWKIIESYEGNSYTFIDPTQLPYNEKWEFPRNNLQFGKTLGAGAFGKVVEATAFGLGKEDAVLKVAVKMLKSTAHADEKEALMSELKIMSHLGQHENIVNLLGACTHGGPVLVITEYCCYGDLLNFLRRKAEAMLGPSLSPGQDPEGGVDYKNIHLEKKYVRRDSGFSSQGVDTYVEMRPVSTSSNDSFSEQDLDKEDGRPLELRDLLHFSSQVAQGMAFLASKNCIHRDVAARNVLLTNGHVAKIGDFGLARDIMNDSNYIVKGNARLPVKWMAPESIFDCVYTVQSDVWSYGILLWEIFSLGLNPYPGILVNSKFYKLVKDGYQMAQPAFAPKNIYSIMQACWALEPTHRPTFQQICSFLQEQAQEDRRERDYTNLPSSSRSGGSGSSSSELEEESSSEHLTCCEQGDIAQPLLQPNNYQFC
Summary of the method: as §1

[4] = molecular target: c-Kit (Homo sapiens (Human), UniProt P10721); assay: Inhibition of c-Kit kinase activity (HTRF KinEASE-TK); assay type: biochemical; conditions: biochemical, HTRF KinEASE-TK
Chain of c-Kit (P10721 26-976): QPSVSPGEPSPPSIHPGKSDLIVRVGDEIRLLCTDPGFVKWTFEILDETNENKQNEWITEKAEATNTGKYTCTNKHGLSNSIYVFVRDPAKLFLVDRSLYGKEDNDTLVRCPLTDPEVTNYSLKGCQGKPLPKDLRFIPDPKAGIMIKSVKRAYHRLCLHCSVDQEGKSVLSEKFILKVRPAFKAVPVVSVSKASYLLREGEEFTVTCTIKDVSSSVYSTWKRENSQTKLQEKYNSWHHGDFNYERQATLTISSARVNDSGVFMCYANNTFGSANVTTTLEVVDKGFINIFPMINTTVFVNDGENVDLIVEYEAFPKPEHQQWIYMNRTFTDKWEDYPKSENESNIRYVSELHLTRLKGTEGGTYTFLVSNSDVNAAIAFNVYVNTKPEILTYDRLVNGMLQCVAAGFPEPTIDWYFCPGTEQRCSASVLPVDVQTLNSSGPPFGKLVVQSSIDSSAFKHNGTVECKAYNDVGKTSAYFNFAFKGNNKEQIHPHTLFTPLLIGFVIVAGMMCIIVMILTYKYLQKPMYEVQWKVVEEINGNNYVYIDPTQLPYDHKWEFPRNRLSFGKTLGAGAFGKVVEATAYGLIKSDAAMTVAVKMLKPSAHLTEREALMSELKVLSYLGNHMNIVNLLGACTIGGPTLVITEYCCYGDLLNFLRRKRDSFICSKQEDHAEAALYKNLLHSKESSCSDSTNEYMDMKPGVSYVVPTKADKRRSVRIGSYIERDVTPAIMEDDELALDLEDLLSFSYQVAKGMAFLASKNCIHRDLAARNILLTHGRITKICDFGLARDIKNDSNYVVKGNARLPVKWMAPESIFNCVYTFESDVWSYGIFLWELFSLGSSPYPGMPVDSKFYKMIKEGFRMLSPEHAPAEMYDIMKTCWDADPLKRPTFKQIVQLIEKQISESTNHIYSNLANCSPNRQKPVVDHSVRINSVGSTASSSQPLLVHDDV
Summary of the method: as §1

[5] = test system: Phospho-KIT (Y703) in M07e cells; assay: Phospho-KIT (Y703) cellular assay in M07e cells; assay type: cell-based; conditions: M-07e, M07e cells
Method: Phospho-KIT (Y703) Cellular Assay in M07e Cells
The day prior to assay, M07e cells (DSMZ, catalog #ACC 104) were serum starved. Cells were centrifuged and cell pellet resuspended in OptiMEM (Gibco, catalog #31985062) to a density of 1×10^6-2.5×10^6 cells per mL. Cells were then incubated overnight at 5% CO2 and 37° C. in an appropriately sized flask. On the day of the experiment, an 11 point, half log titration of test compound was pre-dispensed into 96-well round bottom polypropylene plates (Corning, catalog #3365). The serum starved M07e cells were centrifuged and resuspended to a cell density of 1×10^6 cells per mL with DPBS (Gibco, catalog #14190-144). Live/Dead Green Fixable viability dye (Invitrogen, catalog #L34970) was added as 1 μL/1 mL of cell suspension. Cells were then incubated in the dark at 4° C. for 30 min. Cells were washed by centrifugation and resuspension with DPBS+0.5% BSA (Gemini Bio Products, catalog #700110/100, 30% BSA solution). Cells were resuspended, separated into two equal volumes and again centrifuged. Cell pellets were resuspended with OptiMEM™ to a cell density of 1×10^6 cells per mL. Cells were then added to the appropriate compound plate at 100,000 cells per well in 100 μL and mixed. Plates were incubated at 5% CO2 and 37° C. for 50 min. Stem Cell Factor, SCF (R&D Systems, #255-SC/CF) was diluted in OptiMEM to 1 μg/mL and added to all wells as 10 μL for a final concentration of 90.9 ng/mL. Plates were incubated at 5% CO2 and 37° C. for 10 min. Incubation was stopped by addition of 110 μL 4% paraformaldehyde solution in PBS (Life Technologies, catalog #J19943.K2). Plates were incubated at rt for at least 15 min. Plates were then centrifuged and supernatant removed by flicking. Cells were washed once by resuspension in 200 μL DPBS+0.5% BSA, centrifuged, and supernatant removed by flicking. Cells were resuspended in 100 μL 1X Permeabilization buffer (Invitrogen, catalog #88882400) and plates incubated at rt for 30 min. Plates were centrifuged, supernatant removed by flicking, and cells resuspended in 50 μL primary antibody, anti-phospho-c-KIT (Tyr703) (Cell Signaling, catalog #3073), diluted to 1 μg/mL with permeabilization buffer. Plates were incubated at rt for 1 h. Plates were centrifuged, supernatant removed, and cells resuspended with 200 μL DPBS+0.5% BSA. Plates were again centrifuged, supernatant removed by flicking, and cells resuspended in 100 μL secondary antibody, goat anti-rabbit AlexaFluor647 (AF647) (Invitrogen, catalog #A21244) diluted to 1 μg/mL with DPBS+0.5% BSA. Plates were incubated at rt for 30 min. followed by centrifugation, supernatant removal, and cell resuspension with 200 μL DPBS+0.5% BSA. Cells were washed again by centrifugation, supernatant removal, and cell resuspension with 200 μL DPBS+0.5% BSA. Samples were then read by flow cytometry. The Forward: Side scatter plot was gated and that population was gated for live cells based on the Live/Dead Green staining. The geometric mean of AF647 of the live cell population was recorded. Percentage maximum activity in each test well was calculated based on DMSO (100% activity) and positive control treated cell wells (0% activity). The potencies (IC50 values) of test compounds were determined using a standard 4-parameter non-linear regression fit.

[6] = read-out: Phospho-KIT (Y703) cellular IC50
[7] = Phospho-KIT (Y703), read-out: M07e Cell IC50

Chain of PDGFRβ (P09619 33-1106): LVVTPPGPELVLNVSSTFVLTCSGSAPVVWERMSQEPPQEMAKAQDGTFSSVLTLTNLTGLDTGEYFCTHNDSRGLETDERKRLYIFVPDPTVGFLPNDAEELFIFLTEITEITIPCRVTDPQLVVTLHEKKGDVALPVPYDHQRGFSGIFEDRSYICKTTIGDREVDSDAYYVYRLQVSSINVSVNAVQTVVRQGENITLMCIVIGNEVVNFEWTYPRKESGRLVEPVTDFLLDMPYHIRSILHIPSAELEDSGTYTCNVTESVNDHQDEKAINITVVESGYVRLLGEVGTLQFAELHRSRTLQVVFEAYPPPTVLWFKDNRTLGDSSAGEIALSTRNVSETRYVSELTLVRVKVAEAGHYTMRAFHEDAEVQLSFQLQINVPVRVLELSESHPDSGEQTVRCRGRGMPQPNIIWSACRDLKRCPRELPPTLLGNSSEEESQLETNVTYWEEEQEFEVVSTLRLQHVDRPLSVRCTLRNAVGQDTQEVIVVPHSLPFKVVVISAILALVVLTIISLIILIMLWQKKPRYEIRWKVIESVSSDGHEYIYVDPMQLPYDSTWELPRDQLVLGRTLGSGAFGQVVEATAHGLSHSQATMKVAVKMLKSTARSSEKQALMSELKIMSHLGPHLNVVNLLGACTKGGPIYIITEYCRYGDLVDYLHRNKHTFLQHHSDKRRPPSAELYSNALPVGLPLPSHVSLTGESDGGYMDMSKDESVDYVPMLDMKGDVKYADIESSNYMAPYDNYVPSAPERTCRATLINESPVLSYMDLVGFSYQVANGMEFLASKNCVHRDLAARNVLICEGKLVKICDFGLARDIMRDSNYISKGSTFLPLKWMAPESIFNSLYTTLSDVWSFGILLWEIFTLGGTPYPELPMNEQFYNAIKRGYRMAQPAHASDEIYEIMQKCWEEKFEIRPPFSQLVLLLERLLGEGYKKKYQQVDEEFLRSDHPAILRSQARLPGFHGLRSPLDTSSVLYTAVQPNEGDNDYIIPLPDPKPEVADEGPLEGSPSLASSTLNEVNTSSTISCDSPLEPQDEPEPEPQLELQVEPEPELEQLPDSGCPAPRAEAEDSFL

Row | Structure (SMILES) | IC50 [1] [nM] | IC50 [2] [nM] | IC50 [3] [nM] | IC50 [4] [nM] | IC50 [5, 6] [nM] | IC50 [5, 7] [nM]
1 | Cc1ncc(C(=O)Nc2cc(C(=O)NCc3ccc(OC(F)(F)F)c(F)c3)c(F)cc2C)s1 [Example 269, N-[4-fluoro-5-[[3-fluoro-4-(trifluoromethoxy)phenyl]methylcarbamoyl]-2-methylphenyl]-2-methyl-1,3-thiazole-5-carboxamide] | > 1000 | > 1000 | > 1000 | 100 to 1000 | < 100 | 
2 | Cc1ncc(C(=O)Nc2cc(C(=O)NCc3ccc(OC(F)(F)F)cc3)c(F)cc2C)s1 [Example 267, N-[4-fluoro-2-methyl-5-[[4-(trifluoromethoxy)phenyl]methylcarbamoyl]phenyl]-2-methyl-1,3-thiazole-5-carboxamide] | > 1000 | > 1000 | > 1000 | 100 to 1000 | < 100 | 
3 | Cc1ncc(C(=O)Nc2cc(C(=O)Nc3ccn(CC4CC4)n3)c(F)cc2C)s1 [Example 70, N-[5-[[1-(cyclopropylmethyl)pyrazol-3-yl]carbamoyl]-4-fluoro-2-methylphenyl]-2-methyl-1,3-thiazole-5-carboxamide] | > 1000 | > 1000 | > 1000 | < 100 |  | < 100
4 | Cc1ncc(C(=O)Nc2cc(C(=O)Nc3ccnc(C(F)(F)F)c3)c(F)cc2C)s1 [Example 25, N-[4-Fluoro-2-methyl-5-[[2-(trifluoromethyl)pyridin-4-yl]carbamoyl]phenyl]-2-methyl-1,3-thiazole-5-carboxamide] | 100 to 1000 | > 1000 | > 1000 | < 100 |  | < 100
5 | Cc1ncc(C(=O)Nc2cc(C(=O)NCc3cccc(F)c3F)c(F)cc2C)s1 [Example 265, N-[5-[(2,3-difluorophenyl)methylcarbamoyl]-4-fluoro-2-methylphenyl]-2-methyl-1,3-thiazole-5-carboxamide] | > 1000 | > 1000 | > 1000 | < 100 | < 100 | 
6 | Cc1ncc(C(=O)Nc2cc(C(=O)Nc3cncc(C(F)(F)F)c3)c(F)cc2C)s1 [Example 77, N-[4-fluoro-2-methyl-5-[[5-(trifluoromethyl)pyridin-3-yl]carbamoyl]phenyl]-2-methyl-1,3-thiazole-5-carboxamide] |  |  | > 1000 | < 100 |  | < 100
7 | Cc1cc(F)c(C(=O)Nc2cccnc2C)cc1NC(=O)c1cnc(N)s1 [Example 250, 2-Amino-N-[4-fluoro-2-methyl-5-[(2-methylpyridin-3-yl)carbamoyl]phenyl]-1,3-thiazole-5-carboxamide] |  |  | > 1000 | 100 to 1000 |  | 100 to 1000
8 | Cc1cc(F)c(C(=O)Nc2cncc(C(F)(F)F)c2)cc1NC(=O)c1cnc(N)s1 [Example 249, 2-Amino-N-[4-fluoro-2-methyl-5-[[5-(trifluoromethyl)pyridin-3-yl]carbamoyl]phenyl]-1,3-thiazole-5-carboxamide] |  |  | < 100 | < 100 |  | < 100
9 | Cc1ncc(C(=O)Nc2cc(C(=O)Nc3cccc(C(F)(F)F)n3)c(F)cc2C)s1 [Example 55, N-[4-fluoro-2-methyl-5-[[6-(trifluoromethyl)pyridin-2-yl]carbamoyl]phenyl]-2-methyl-1,3-thiazole-5-carboxamide] |  |  | > 1000 | < 100 |  | < 100
10 | Cc1ncc(C(=O)Nc2cc(C(=O)Nc3ccc(CC(F)(F)F)nc3)c(F)cc2C)s1 [Example 98, N-[4-fluoro-2-methyl-5-[[6-(2,2,2-trifluoroethyl)pyridin-3-yl]carbamoyl]phenyl]-2-methyl-1,3-thiazole-5-carboxamide] |  |  | > 1000 | < 100 |  | < 100
11 | Cc1ncc(C(=O)Nc2cc(C(=O)Nc3cncc(C4CC4)c3)c(F)cc2C)s1 [Example 53, N-[5-[(5-cyclopropylpyridin-3-yl)carbamoyl]-4-fluoro-2-methylphenyl]-2-methyl-1,3-thiazole-5-carboxamide] |  |  | > 1000 | < 100 |  | < 100
12 | Cc1ncc(C(=O)Nc2cc(C(=O)N[C@H]3C[C@@H]3c3ccccc3)c(F)cc2C)s1 [Example 30, N-[4-Fluoro-2-methyl-5-[[(1S,2R)-2-phenylcyclopropyl]carbamoyl]phenyl]-2-methyl-1,3-thiazole-5-carboxamide] |  |  | > 1000 | 100 to 1000 |  | < 100
13 | Cc1ncc(C(=O)Nc2cc(C(=O)Nc3ccnc(C#N)c3)c(F)cc2C)s1 [Example 18, N-[5-[(2-Cyanopyridin-4-yl)carbamoyl]-4-fluoro-2-methylphenyl]-2-methyl-1,3-thiazole-5-carboxamide] |  |  | > 1000 | < 100 |  | 100 to 1000

Results, then the molecule that gave them:

Row | IC50 [1] [nM] | IC50 [2] [nM] | IC50 [3] [nM] | IC50 [4] [nM] | IC50 [5, 6] [nM] | IC50 [5, 7] [nM] | Structure (SMILES)
14 | > 1000 | > 1000 | > 1000 | < 100 |  | < 100 | Cc1ncc(C(=O)Nc2cc(C(=O)Nc3cnc(N4CCC[C@H]4C)cn3)c(F)cc2C)s1 [Example 84, N-(5-{N-5-[(R)-2-methyl-1-pyrrolidinyl]-2-pyrazinylcarbamoyl}-4-fluoro-2-tolyl)-2-methyl-1,3-thiazole-5-carboxamide]
15 | 100 to 1000 | 100 to 1000 | 100 to 1000 | < 100 |  | < 100 | Cc1ncc(C(=O)Nc2cc(C(=O)Nc3cc(CC4CC4)ncn3)c(F)cc2C)s1 [Example 50, N-(5-((6-(cyclopropylmethyl)pyrimidin-4-yl)carbamoyl)-4-fluoro-2-methylphenyl)-2-methylthiazole-5-carboxamide]
16 |  |  | > 1000 | 100 to 1000 |  | 100 to 1000 | Cc1ncc(C(=O)Nc2cc(C(=O)Nc3ccc(C#N)cn3)c(F)cc2C)s1 [Example 19, N-[5-[(5-Cyanopyridin-2-yl)carbamoyl]-4-fluoro-2-methylphenyl]-2-methyl-1,3-thiazole-5-carboxamide]
17 |  |  | > 1000 | 100 to 1000 |  | 100 to 1000 | Cc1ncc(C(=O)Nc2cc(C(=O)Nc3cnc(C(F)F)cn3)c(F)cc2C)s1 [Example 56, N-[5-[[5-(difluoromethyl)pyrazin-2-yl]carbamoyl]-4-fluoro-2-methylphenyl]-2-methyl-1,3-thiazole-5-carboxamide]
18 |  |  | > 1000 | < 100 |  | < 100 | Cc1ncc(C(=O)Nc2cc(C(=O)Nc3cnc(C(F)(F)F)cn3)c(F)cc2C)s1 [Example 29, N-[4-fluoro-2-methyl-5-[[5-(trifluoromethyl)pyrazin-2-yl]carbamoyl]phenyl]-2-methyl-1,3-thiazole-5-carboxamide]
19 |  |  | > 1000 | < 100 |  | 100 to 1000 | COc1cnc(NC(=O)c2cc(NC(=O)c3cnc(C)s3)c(C)cc2F)cn1 [Example 23, N-[4-Fluoro-5-[(5-methoxypyrazin-2-yl)carbamoyl]-2-methylphenyl]-2-methyl-1,3-thiazole-5-carboxamide]
20 |  |  | > 1000 | < 100 |  | < 100 | CCc1cnc(NC(=O)c2cc(NC(=O)c3cnc(C)s3)c(C)cc2F)cn1 [Example 27, N-[5-[(5-ethylpyrazin-2-yl)carbamoyl]-4-fluoro-2-methylphenyl]-2-methyl-1,3-thiazole-5-carboxamide]
